What all share (format): cell-based, human
For test [1], the system named is RAD51 foci in U-2 OS IndDR-GFP cells. The experiment in a line: RAD51 foci formation (immunofluorescence). Conditions: 30 µM. The protocol: U-2 OS IndDR-GFP cells were seeded into 8-well polystyrene vessel culture slides at 5 × 10^4 cells/well. The next day, cells were pretreated with B02-iso or 0.1% DMSO (for control cells) for 1 h, followed by the treatment with 5 µM cisplatin for 4 h or left untreated (for control cells). After 4 h of incubation, cells were placed on ice, washed with PBS buffer (twice, 5 min each), pretreated with 0.5% Triton X-100 for 5 min, washed with PBS (twice, 5 min each). Cells were removed from ice and fixed with 4% methanol-free formaldehyde (Pierce; Waltham, […], USA) in PBS for 10 min. Cells were washed with PBS (twice, 5 min each), placed on ice, and permeabilized with 1% Triton X-100 in PBS for 10 min. Cells were removed from ice, washed with PBS (once, 5 min), blocked with a blocking buffer (5% BSA (Bovine Serum Albumin) in PBS) for 30 min, and incubated with rabbit polyclonal RAD51 antibody (1:1000, GeneTex, GTX100469) and mouse monoclonal anti-phospho-histone H2A.X (Ser 139) antibody (1:20,000, clone JBW301, Millipore 05-636) in blocking buffer, containing 0.3% Triton X-100 overnight at 4 °C. […] For foci quantification, 50 cells were chosen for each treatment condition at random, and foci number was counted using ImageJ software. […]

Test [2] deals with MCF 10A cells. The experiment in a line: EdU cell proliferation assay, MCF 10A. Particulars: 24 h. The protocol:
(§1) Exponentially growing MDA-MB-231 and MCF 10A cells were seeded into 6-well plates at a density of 1.5 × 10^5 cells/well in the presence of indicated concentrations of B02-iso or 0.1% DMSO (for control cells). After 24 h of incubation, cells were labeled with 10 µM Edu (Invitrogen; Waltham, […], USA) for 1 h or left unlabeled in the control. Cells were harvested and centrifuged at 500× g, 4 °C for 5 min, and cell pellets were washed with PBS supplemented with 1% BSA, spun down, and fixed with 4% methanol-free formaldehyde (Pierce) in PBS for 15 min. Cells were washed with PBS containing 1% BSA, centrifuged 500× g for 5 min. Cell pellets were resuspended in PBS containing 0.1% Triton X-100 and incubated for 15 min for permeabilization. Cells were spun down, resuspended in freshly prepared Edu click labeling solution (1 mM CuSO4, 1.25 µM Alexa Fluor 488 Azide (Invitrogen; Waltham, […], USA), 50 mM ascorbic acid in PBS) and incubated for 30 min in the dark. Cells were washed twice with PBS containing 0.1% Triton X-100, resuspended in the same buffer, and analyzed for Edu incorporation by flow cytometry using the Guava easyCyte system (Millipore; Burlington, VT, USA) with the InCyte software (Millipore; Burlington, VT, USA).

For the next test, the system named is MDA-MB-231 cells. The experiment in a line: EdU cell proliferation assay, MDA-MB-231. Particulars: 24 h. How it is done:
as §1

Test [3] has as its system MCF 10A cells. The experiment in a line: Cell cycle analysis (propidium iodide flow cytometry). Conditions: 24 h. The protocol: Exponentially growing MDA-MB-231 and MCF 10A cells were seeded into 6-well plates at a density of 1.5 × 10^5 cells/well in the presence of indicated concentrations of B02-iso or 0.01% DMSO (for control cells). After 24 h of incubation, cells were harvested, placed on ice, and washed once with cold PBS. Cells were counted with an automated cell counter (Bio-Rad; Hercules, CA, USA), and 1 × 10^5 cells from each sample were taken for further analysis. Cells were resuspended in PBS, and then cold, absolute ethanol was added dropwise to a cell suspension to reach a final concentration of 70%, followed by incubation on ice for 1 h. Cells were washed in PBS, resuspended in staining buffer (50 µg/mL propidium iodide, 100 µg/mL RNase A, 0.1% Triton X-100 in PBS) and incubated for 15 min in the dark at 37 °C. Cells were analyzed for DNA content by flow cytometry using the Guava easyCyte system (Millipore; Burlington, VT, USA) with the InCyte software (Millipore; Burlington, VT, USA).
For orientation: In flow cytometry, cells or beads pass a laser one at a time.

Test [4] relates to RAD51 expression in U-2 OS IndDR-GFP cells. The experiment in a line: RAD51 expression level by Western blotting. Particulars: 4 µM, 24 h. How it is done: Protein concentrations in the nuclear and whole-cell extracts were determined by Bradford assay (Bio-Rad), and the equivalent protein amounts were subjected to electrophoresis in 12% SDS-Polyacrylamide gels (29:1) in Tris-Glycine-SDS buffer. After gel-electrophoresis, proteins were transferred to PVDF membranes (Amersham, Piscataway, NJ, USA) using Mini Trans-Blot Cell (BioRad, Hercules, CA, USA) at 80V for 40 min. PVDF membranes were washed in TBS and blocked with a blocking buffer (5% nonfat dry milk in TBS-T) for 1 h. Anti-RAD51 rabbit polyclonal antibody (1:1000, GeneTex, GTX100469), anti-FKBP12 monoclonal mouse antibody (1:100, BD Biosciences; Franklin lakes, NJ, USA, 610808) for the detection of ddSceGR, and anti-nucleolin mouse monoclonal antibody (1:1000, Santa Cruz Biotechnology; Dallas, Texas, sc-17826) were applied overnight in a blocking buffer at 4 °C. […] Signal was detected with SuperSignal West Pico Plus chemiluminescent substrate (Thermo Scientific; Waltham, […], USA) with a G:B0X6 imaging system (Syngene; Bangalore, India). Band intensities were quantified with the GeneTools software (Syngene; Bangalore, India).
IndDR-GFP cells. […] 10 µg of protein lysates were loaded and analyzed by SDS-PAGE. […]

Each structure is given as a SMILES string. Entries after “also recorded” stand apart in the source; their conditions may differ.

`O=c1nc(/C=C/c2cccnc2)n(Cc2ccccc2)c2ccccc12` [B02-iso]: the “RAD51 foci formation, compound alone” value in test [1] (1 h, no cisplatin) is reported as “did not significantly affect RAD51 foci formation”. Besides, the “RAD51 foci formation induced by cisplatin” value in test [1] (1 h pretreatment, then 5 µM cisplatin 4 h) is “almost completely eliminated RAD51 foci formation”. Besides, the “Fraction of DNA-replicating cells (EdU)” value in the test on MCF 10A cells [2] (4 µM) was “dropped approximately two-fold”; in the test with MCF 10A cells [2] (8 µM), “abolished almost entirely”; in the test on MDA-MB-231 cells (MDA-MB-231, 4 µM), “remained unchanged”. Moreover, the “Reduction of fraction of DNA-replicating cells (EdU)” value with MDA-MB-231 cells (MDA-MB-231, 8 µM) is listed as “approximately 20%”. For the same compound, the Cell cycle effect result in the test on MCF 10A cells [3] is “prominent G1 arrest”. The RAD51 expression level entry in test [4] was “does not change the RAD51 expression level; also recorded: did not change RAD51 expression level”.
